Reference: ChEMBL document CHEMBL2375323, “Cu(OTf)2 catalyzed three component reaction: efficient synthesis of spiro[indoline-3,4'-pyrano[3,2-b]pyran derivatives and their anticancer potency towards A549 human lung cancer cell lines” (Bioorg Med Chem Lett, 2013)

Tested on: A549
Test: Cytotoxicity against human A549 cells assessed as growth inhibition by MTT assay
Assay type: functional, cell-based

Compound	IC50 [µM]
N#CC1=C(N)Oc2c(oc(CO)cc2=O)C12C(=O)Nc1ccc(Cl)cc12 (centres undefined)	51.4
CCOC(=O)C1=C(N)Oc2c(oc(CO)cc2=O)C12C(=O)Nc1ccc(C)cc12 (centres undefined)	52.9
CCOC(=O)C1=C(N)Oc2c(oc(CO)cc2=O)C12C(=O)Nc1ccc(Cl)cc12 (centres undefined)	53.1
N#CC1=C(N)Oc2c(oc(CO)cc2=O)C12C(=O)N(Cc1ccccc1)c1ccccc12 (centres undefined)	> 200
C=CCN1C(=O)C2(C(C#N)=C(N)Oc3c2oc(CO)cc3=O)c2ccccc21 (centres undefined)	59.4
CCOC(=O)C1=C(N)Oc2c(oc(CO)cc2=O)C12C(=O)Nc1ccc(F)cc12 (centres undefined)	> 200
C=CCN1C(=O)C2(C(C(=O)OCC)=C(N)Oc3c2oc(CO)cc3=O)c2ccccc21 (centres undefined)	54.6
COC(=O)C1=C(N)Oc2c(oc(CO)cc2=O)C12C(=O)Nc1ccc(C)cc12 (centres undefined)	62.8
N#CC1=C(N)Oc2c(oc(CO)cc2=O)C12C(=O)Nc1ccccc12 (centres undefined)	52.8
CCOC(=O)C1=C(N)Oc2c(oc(CO)cc2=O)C12C(=O)N(C)c1ccccc12 (centres undefined)	55.8
COC(=O)C1=C(N)Oc2c(oc(CO)cc2=O)C12C(=O)N(Cc1ccccc1)c1ccccc12 (centres undefined)	55.1
COC(=O)C1=C(N)Oc2c(oc(CO)cc2=O)C12C(=O)Nc1ccccc12 (centres undefined)	56.2
CN1C(=O)C2(C(C#N)=C(N)Oc3c2oc(CO)cc3=O)c2ccccc21 (centres undefined)	51.1
CCOC(=O)C1=C(N)Oc2c(oc(CO)cc2=O)C12C(=O)Nc1ccccc12 (centres undefined)	> 200
N#CC1=C(N)Oc2c(oc(CO)cc2=O)C12C(=O)Nc1ccc(Br)cc12 (centres undefined)	> 200
C#CCN1C(=O)C2(C(C#N)=C(N)Oc3c2oc(CO)cc3=O)c2ccccc21 (centres undefined)	> 200
COC(=O)C1=C(N)Oc2c(oc(CO)cc2=O)C12C(=O)Nc1ccc([N+](=O)[O-])cc12 (centres undefined)	55.9
N#CC1=C(N)Oc2c(oc(CO)cc2=O)C12C(=O)Nc1ccc(F)cc12 (centres undefined)	> 200
CCOC(=O)C1=C(N)Oc2c(oc(CO)cc2=O)C12C(=O)Nc1ccc(Br)cc12 (centres undefined)	52.8
